# Reference: patent publication US20040067531A1, “Methods of modulating protein tyrosine kinase function with substituted indolinone compounds” (SUGEN, INC., priority 1997, published 2004)
# Tests used:
# [1] = tested on: 3T3 cell line genetically engineered to express human PDGF-R; assay: PDGF-induced BrdU incorporation assay; type: cell-based; conditions: NIH3T3; 3T3 cells expressing human PDGF-R, PDGF 3.8 nM; read-out: PDGF-Induced BrdU Incorp. IC50
# Procedure: (1) PDGF: human PDGF B/B; 1276-956, Boehringer Mannheim, Germany
# (8) 3T3 cell line genetically engineered to express human PDGF-R.
# (§1) 1. Cells were seeded at 8000 cells/well in DMEM, 10% CS, 2 mM Gln in a 96 well plate. Cells were incubated overnight at 37° C. in 5% CO2.
# (§2) 2. After 24 hours, the cells were washed with PBS, and then were serum starved in serum free medium (0% CS DMEM with 0.1% BSA) for 24 hours.
# (§3) 3. On day 3, ligand (PDGF=3.8 nM, prepared in DMEM with 0.1% BSA) and test compounds were added to the cells simultaneously. The negative control wells received serum free DMEM with 0.1% BSA only; the positive control cells received the ligand (PDGF) but no test compound. Test compounds were prepared in serum free DMEM with ligand in a 96 well plate, and serially diluted for 7 test concentrations.
# (§4) 4. After 20 hours of ligand activation, diluted BrdU labeling reagent (1:100 in DMEM, 0.1% BSA) was added and the cells were incubated with BrdU (final concentration=10 μM) for 1.5 hours.
# (§5) 5. After incubation with labeling reagent, the medium was removed by decanting and tapping the inverted plate on a paper towel. FixDenat solution was added (50 μL/well) and the plates were incubated at room temperature for 45 minutes on a plate shaker.
# (§6) 6. The FixDenat solution was thoroughly removed by decanting and tapping the inverted plate on a paper towel. Milk was added (5% dehydrated milk in PBS, 200 μL/well) as a blocking solution and the plate was incubated for 30 minutes at room temperature on a plate shaker.
# (§7) 7. The blocking solution was removed by decanting and the wells were washed once with PBS. Anti-BrdU-POD solution (1:100 dilution in PBS, 1% BSA) was added (100 μL/well), and the plate was incubated for 90 minutes at room temperature on a plate shaker.
# (§8) 8. The antibody conjugate was thoroughly removed by decanting and rinsing the wells 5 times with PBS, and the space was dried by inverting and tapping on a paper towel.
# (§9) 9. TMB substrate solution was added (100 μL/well) and incubated for 20 minutes at room temperature on a plate shaker until color development was sufficient for photometric detection.
# (§10) 10. The absorbance of the samples were measured at 410 nm (in “dual wavelength” mode with a filter reading at 490 nm, as a reference wavelength) on a Dynatech ELISA plate reader.
# (§11) The IC50 values were measured for several of the compounds of the invention. These values are depicted in Table 10.
# [2] = tested on: EGF-induced BrdU incorporation; assay: EGF-induced BrdU incorporation assay; type: cell-based; conditions: read-out: EGF-Induced BrdU Incorp. IC50
# Procedure: PDGF-, FGF-, and EGF-Induced BRDU Incorporation Assay
# as §1, §2, §3, §4, §5, §6, §7, §8, §9, §10, §11
# HUV-EC-C cells; VEGF = assay: HUVEC-VEGF 3H-thymidine incorporation assay; type: cell-based, human; conditions: Homo sapiens
# Procedure: The following protocol is used to measure a compound's activity against VEGF and aFGF, all of which are expressed by HUVEC cells.
# 1. […] After cells have detached from the flask, add an equal volume of assay medium and transfer to a 50 mL sterile centrifuge tube (Fisher Scientific; catalogue no. 05-539-6).
# 2. Wash the cells with about 35 mL assay medium in the 50 mL sterile centrifuge tube by adding the assay medium, centrifuge for 10 minutes at approximately 200×g, aspirate the supernatant, and resuspend with 35 mL D-PBS. Repeat the wash two more times with D-PBS, resuspend the cells in about 1 mL assay medium/15 cm^2 of tissue culture flask. Assay medium consists of F12K medium (Gibco BRL; catalogue no. 21127-014)+0.5% heat-inactivated fetal bovine serum. Count the cells with a Coulter Counter® (Coulter Electronics, Inc.) and add assay medium to the cells to obtain a concentration of 0.8-1.0×10^5 cells/mL.
# 3. Add cells to 96-well flat-bottom plates at 100 μL/well or 0.8-1.0×10^4 cells/well; incubate ˜24h at 37° C., 5% CO^2.
# 1. Make up two-fold drug titrations in separate 96-well plates, generally 50 μM on down to 0 μM. Use the same assay medium as mentioned in day 0, step 2 above. Titrations are made by adding […] of drug at 200 μM (4× the final well concentration) to the top well of a particular plate column. Since the stock drug concentration is usually 20 mM in DMSO, the 200 μM drug concentration contains 2% DMSO.
# Therefore, diluent made up to 2% DMSO in assay medium (F12K+0.5% fetal bovine serum) is used as diluent for the drug titrations in order to dilute the drug but keep the DMSO concentration constant. Add this diluent to the remaining wells in the column at 60 μL/well. Take 60 μL from the 120 μL of 200 μM drug dilution in the top well of the column and mix with the 60 μL in the second well of the column. Take 60 μL from this well and mix with the 60 μL in the third well of the column, and so on until two-fold titrations are completed. When the next-to-the-last well is mixed, take 60 μL of the 120 μL in this well and discard it. Leave the last well with 60 μL of DMSO/media diluent as a non-drug-containing control. Make 9 columns of titrated drug, enough for triplicate wells each for 1) VEGF (obtained from Pepro Tech Inc., catalogue no. 100-200, 2) endothelial cell growth factor (ECGF) (also known as acidic fibroblast growth factor, or aFGF) (obtained from Boehringer Mannheim Biochemica, catalogue no. 1439 600); or, 3) human PDGF B/B (1276-956, Boehringer Mannheim, Germany) and assay media control. ECGF comes as a preparation with sodium heparin.
# 2. Transfer 50 μL/well of the drug dilutions to the 96-well assay plates containing the 0.8-1.0×10^4 cells/100 μL/well of the HUV-EC-C cells from day 0. and incubate ˜2 h at 37° C., 5% CO2.
# 3. […] As with the drugs, the growth factor concentrations are 4× the desired final concentration. Use the assay media from day 0 step 2 to make the concentrations of growth factors. Incubate approximately 24 hours at 37° C., 5% CO2. Each well will have 50 μL drug dilution, 50 μL growth factor or media, and 100 μL cells, =200 μL/well total. Thus the 4× concentrations of drugs and growth factors become 1× once everything has been added to the wells.
# 1. Add ^3H-thymidine (Amersham; catalogue no. TRK-686) at 1 μCi/well (10 μL/well Of 100 μCi/mi solution made up in RPMI media +10% heat-inactivated fetal bovine serum) and incubate μ24 h at 37° C., 5% CO2. RPMI was obtained from Gibco BRL, catalogue no. 11875-051.
# 1. Freeze plates overnight at […]
# 1. Thaw plates and harvest with a 96-well plate harvester (Tomtec Harvester 96®) onto filter mats (Wallac; catalogue no. 1205-401); read counts on a Wallac Betaplate™ liquid scintillation counter.
# The IC50 values were measured for several of the compounds of the invention.
compound,measurement,setting,value
"Cc1c[nH]c(C=C2C(=O)Nc3ccc(Br)cc32)c1CCC(=O)O [IN-031, 3-[2-(5-Bromo-2-oxo-1,2-dihydro-indol-3-ylidenemethyl)-4-methyl-1H-pyrrol-3-yl]-propionic acid]",IC50,[1],8.5 µM
same,IC50,[2],> 50 µM
same,IC50,HUV-EC-C cells; VEGF,0.04 µM
